Source: US20080249132A1, “Piperidine Carboxyamide Derivate Suitable as Tachykinin Receptor Antagonist” (priority 2005, published 2008)

Target: T1, recombinant human NK1 receptors (Homo sapiens, UniProt P25103)
T1 construct: expressed in transfected cells; membrane preparation
Experiment: NK1 receptor filtration binding assay, displacement of [3H]-Substance P
Details: displacement of [3H]-substance P from recombinant human NK1 receptors expressed in CHO cell membranes; average of at least two determinations; read-out: pKi (negative logarithm of the inhibition constant Ki) (converted)
Protocol: NK1-receptor binding affinity has been determined in vitro in filtration binding assay by measuring the compounds' ability to displace [^3H]-Substance P (SP) from recombinant human NK1 receptors stably expressed in Chinese Hamster Ovary (CHO) cell membranes prepared by using a modification of the method described by Beattie D. T. et al. (Br. J. Pharmacol, 116:3149-3157, 1995).
Briefly, ligand binding was performed in 0.4 ml of 50 mM HEPES, pH 7.4, containing 3 mM MnCl2, 0.02% BSA, 0.5 nM [^3H]-Substance P (30-56 Ci/mmol Amersham), a final membrane protein concentration of 30-50 μg/ml, and the test compounds. The incubation proceeded at room temperature for 40 min and was stopped by filtration. Non-specific binding was determined using excess of substance P (1 μM) and represents about 6-10% of the total binding. IC50 values of each compound were determined by an 8-point 10×-dilution inhibition curve. pKi values were calculated using the KD of [^3H]-Substance P determined in a separate experiment.
The affinity of the compound of the invention for NK1 receptor was determined using the NK1 receptor binding affinity method measuring in vitro the compounds' ability to displace [3H]—substance P (SP) from recombinant human NK1 receptors expressed in Chinese Hamster Ovary (CHO) cell membranes. […]

T1 sequence (P25103 whole entry): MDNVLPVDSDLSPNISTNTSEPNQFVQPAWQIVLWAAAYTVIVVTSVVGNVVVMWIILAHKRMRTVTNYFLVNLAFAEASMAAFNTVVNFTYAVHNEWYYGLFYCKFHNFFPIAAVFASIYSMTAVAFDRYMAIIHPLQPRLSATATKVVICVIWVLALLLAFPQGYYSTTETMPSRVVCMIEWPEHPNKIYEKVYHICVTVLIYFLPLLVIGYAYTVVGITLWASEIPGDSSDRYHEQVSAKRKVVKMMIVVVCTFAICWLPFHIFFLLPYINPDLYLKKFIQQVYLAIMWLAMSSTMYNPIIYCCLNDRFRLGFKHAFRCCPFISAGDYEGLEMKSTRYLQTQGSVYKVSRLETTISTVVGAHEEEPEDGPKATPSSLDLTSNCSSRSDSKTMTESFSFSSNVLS

Ki: 0.02 nM
Compound: CC(=O)NCCN[C@H]1CCN(C(=O)N(C)[C@H](C)c2cc(C(F)(F)F)cc(C(F)(F)F)c2)[C@@H](c2ccc(F)cc2C)C1 [Example 1, (2R,4S)-4-{[2-(acetylamino)ethyl]amino}-N-{(1R)-1-(3,5-bis(trifluoromethyl)phenyl)ethyl}-2-(4-fluoro-2-methylphenyl)-N-methyl-1-piperidinecarboxamide]
